Laboratory results: patent US7553823B2, “C-pyrazole A2A receptor agonists” (CV Therapeutics, Inc., priority 1999, dated 2009)
Read-outs that look alike come from different tables or passages of the source.

Tests used:
[1] = biological target: A2A AdoR (Rattus norvegicus, UniProt P30543); assay: Increase of coronary conductance in rat isolated perfused hearts
Protocol: (§3) Adult Sprague Dawley rats and Hartley guinea pigs of either sex weighing from 230 to 260 grams and 300 to 350 grams, respectively were used in this study. Animals were anesthetized by peritoneal injection of a cocktail containing ketamine and xylazine (ketamine 100 mg, xylazin 20 mg/ml). The chest was opened and the heart quickly removed. The heart was briefly rinse in ice-cold Krebs-Henseleit solution (see below), and the aorta cannulated. […] The heart was electrically paced at a fixed cycle length of 340 ms (250 beats/min) using a bipolar electrode place on the left atrium. The electrical stimuli were generated by a Grass stimulator (Model S48, W. Warwick, R.I.) and delivered through a Stimuli Isolation Unit (Model SIU5, Astro-Med, Inc., NY) as square-wave pulses of 3-msec in duration and amplitude of at least twice the threshold intensity.
Coronary perfusion pressure (CPP) was measured using a pressure transducer, connected to the aortic cannula via a T-connector positioned approximately 3 cm above the heart. Coronary perfusion pressure was monitored throughout the experiment and recorded either on a chart recorder (Gould Recorder 2200S) or a computerized recording system (PowerLab/4S, ADinstruments Pty Ltd, Australia). Only hearts with CPP ranging from 60 to 85 mmHg (in the absence of drugs) were used in the study.
One concentration was made from the stock solution by dilution into saline to yield solution of either 2×10^−4 or 2×10^−5 M. These solutions were injected into the perfusion line of the apparatus as boluses of 20 μl. In some experiments the solutions were placed into a 30 ml glass syringe and the drugs were infused at rates necessary to achieve the desired perfusate concentrations (e.g, 10, 100 nM, etc).
Hearts were instrumented for continuous recording of coronary perfusion pressure (A2A response) and atrioventricular (A-V) conduction time or S-H interval (A1 response).

[2] = biological target: human A2A AdoR (Homo sapiens, UniProt P29274); assay: Competition binding, [3H]ZM241385 binding sites on HEK-hA2AAR cell membranes; conditions: for Ki: HEK-hA2AAR Cells, [3H]ZM241385, Gpp(NH)p 100 μM
human A2A AdoR, sequence (P29274 whole entry): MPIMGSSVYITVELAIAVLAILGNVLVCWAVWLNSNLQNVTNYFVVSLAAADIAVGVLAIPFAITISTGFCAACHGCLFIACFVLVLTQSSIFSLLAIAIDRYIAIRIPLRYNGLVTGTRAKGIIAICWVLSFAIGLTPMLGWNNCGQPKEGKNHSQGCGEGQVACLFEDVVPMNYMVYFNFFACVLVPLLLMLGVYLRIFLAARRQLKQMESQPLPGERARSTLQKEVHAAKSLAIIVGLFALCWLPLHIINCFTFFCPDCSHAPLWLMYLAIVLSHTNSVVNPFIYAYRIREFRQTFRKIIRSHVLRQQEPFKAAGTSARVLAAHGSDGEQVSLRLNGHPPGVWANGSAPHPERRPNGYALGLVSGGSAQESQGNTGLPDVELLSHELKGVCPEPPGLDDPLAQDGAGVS
Protocol: To make membranes, cells were detached from the culture plates into ice-cold 50 mmol/L Tris-HCI buffer (pH7.4). The cell suspensions were homogenized with Polytron at setting 4 for 30 seconds, and spun at 48,000 g for 15 minutes. The pellets were washed three times by re-suspension in ice-cold Tris-HCI buffer and centrifugation. The final pellet was re-suspended in a small volume of Tris-HCI, aliquoted and frozen at −80° C. until used for receptor binding assays. The protein concentration of membrane suspensions was determined using the Bradford method (Bio-Rad) with bovine serum as standards.
At the end of incubation, bound and free radioligands were separated by filtration through Whatman GF/C glass fiber filters using a Brandel tissue harvester (Gaithersburg, Md.). Triplicate determinations were performed for each concentration of the competing agent.
The affinity (Ki) of various CVT compounds for the A1 and A2A adenosine receptor were determined by their potency to compete for [^3H]CPX (A1) or [^3H]ZM241385 (A2A) binding sites on membranes derived from CHO-hA1AdoR, PC12 or HEK-HA2AAdoR cells.

[3] = biological target: A2A receptor (Sus scrofa, UniProt K9IW67); assay: Affinity for the A2A receptor in a pig striatum membrane prep (displacement of tritiated ZM 241385); format: binding; conditions: pig striatal membranes, tritiated ZM 241385 2 nM, 23 C 2 h; read-out: A2a Ki
A2A receptor, sequence (K9IW67 1-409): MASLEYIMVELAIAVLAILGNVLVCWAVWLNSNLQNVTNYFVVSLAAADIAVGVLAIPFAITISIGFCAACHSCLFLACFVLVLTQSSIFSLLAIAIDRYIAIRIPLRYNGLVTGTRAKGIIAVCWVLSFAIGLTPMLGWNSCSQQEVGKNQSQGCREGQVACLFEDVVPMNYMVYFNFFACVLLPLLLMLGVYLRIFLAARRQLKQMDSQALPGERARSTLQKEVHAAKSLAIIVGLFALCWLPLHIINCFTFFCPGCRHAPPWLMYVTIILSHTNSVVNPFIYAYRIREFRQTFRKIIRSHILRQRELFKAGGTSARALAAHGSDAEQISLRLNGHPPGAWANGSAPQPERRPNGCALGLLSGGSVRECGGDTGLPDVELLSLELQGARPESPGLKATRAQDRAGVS
Protocol: Compounds of this invention were assayed to determine their affinity for the A2A receptor in a pig striatum membrane prep. Briefly, 0.2 mg of pig striatal membranes were treated with adenosine deaminase and 50 mM Tris buffer (pH=7.4) followed by mixing. […] After incubation at 23 C for 2 h, then the solutions were filtered using a membrane harvester using multiple washing of the membranes (3×). The filter disks were counted in scintillation cocktail affording the amount of displacement of tritiated ZM by the competitive binding compounds of this invention. Greater than a 5 point curve was used to generate IC50's and the number of experiments is indicated in the column marked in Table 1 below.

[4] = biological target: A2A adenosine receptor (Rattus norvegicus, UniProt P30543); assay: Reversal time of coronary vasodilation after bolus injection in rat isolated perfused hearts; conditions: rat isolated perfused hearts, bolus into perfusion line
A2A adenosine receptor, sequence (P30543 whole entry, the tested form may be a part): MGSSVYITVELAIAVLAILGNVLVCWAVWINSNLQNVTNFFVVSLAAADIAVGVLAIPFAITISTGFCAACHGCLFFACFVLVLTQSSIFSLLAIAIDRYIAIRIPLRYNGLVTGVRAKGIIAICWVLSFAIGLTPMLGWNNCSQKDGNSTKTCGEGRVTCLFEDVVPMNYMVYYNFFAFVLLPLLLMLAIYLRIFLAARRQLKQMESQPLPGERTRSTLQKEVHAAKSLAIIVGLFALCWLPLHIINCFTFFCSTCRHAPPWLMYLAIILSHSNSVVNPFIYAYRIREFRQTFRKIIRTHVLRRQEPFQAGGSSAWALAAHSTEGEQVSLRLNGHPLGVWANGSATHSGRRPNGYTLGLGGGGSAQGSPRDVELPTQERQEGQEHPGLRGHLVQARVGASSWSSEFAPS
Protocol: Animals were anesthetized by peritoneal injection of a cocktail containing ketamine and xylazine (ketamine 100 mg, xylazine 20 mg/ml). The chest was opened and the heart quickly removed. The heart was briefly rinse in ice-cold Krebs-Henseleit solution (see below), and the aorta cannulated. […] The heart was electrically paced at a fixed cycle length of 340 ms (250 beats/min) using a bipolar electrode place on the left atrium. The electrical stimuli were generated by a Grass stimulator (Model S48, W. Warwick, R.I) and delivered through a Stimuli Isolation Unit (Model SIU5, Astro-Med, Inc., NY) as square-wave pulses of 3 msec in duration and amplitude of at least twice the threshold intensity.
Coronary perfusion pressure (CPP) was measured using a pressure transducer, connected to the aortic cannula via a T-connector positioned approximately 3 cm above the heart. Coronary perfusion pressure was monitored throughout the experiment and recorded either on a chart recorder (Gould Recorder 2200S) or a computerized recording system (PowerLab/4S, ADInstruments Pty Ltd, Australia). Only hearts with CPP ranging from 60 to 85 mmHg (in the absence of drugs) were used in the study.
Protocol: Bolus injections. […] The times to 50% (t 0.5) and 90% (t 0.9) reversal of the decrease in CPP were measured. Each heart was exposed to a maximum of three vasodilators.

[5] = tested on: A2A AdoR; assay: Closing statement of Example 8 on potency and efficacy as A2A AdoR agonist coronary vasodilator (test not specified)
[6] = biological target: T1, A1 AdoR (Cavia porcellus, UniProt P47745); assay: Stimulus-to-His-bundle (S-H) interval in guinea pig isolated perfused hearts; conditions: concentrations as high as 50 μM
T1 construct: from tissue; host or cells: Hartley guinea pig isolated perfused heart
T1 sequence (P47745 1-326): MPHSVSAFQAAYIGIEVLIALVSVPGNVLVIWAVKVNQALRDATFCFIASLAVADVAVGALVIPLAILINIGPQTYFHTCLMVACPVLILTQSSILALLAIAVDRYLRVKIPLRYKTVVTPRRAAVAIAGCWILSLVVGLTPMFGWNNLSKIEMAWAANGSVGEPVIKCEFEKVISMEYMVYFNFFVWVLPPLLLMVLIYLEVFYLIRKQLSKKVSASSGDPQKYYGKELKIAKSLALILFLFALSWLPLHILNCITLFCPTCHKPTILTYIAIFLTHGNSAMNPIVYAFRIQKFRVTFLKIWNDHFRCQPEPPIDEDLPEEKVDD
Protocol: (§1) Rats and guinea pigs, of either sex weighing from 230 to 260 grams and 300 to 350 grams, respectively, were used in this study. Animals were anesthetized by peritoneal injection of a cocktail containing ketamine and xylazine (ketamine 100 mg, xylazine 20 mg/ml). The chest was opened and the heart quickly removed. The heart was briefly rinse in ice-cold Krebs-Henseleit solution (see below), and the aorta cannulated. […]
(§2) A1 adenosine receptor-mediated depression of A-V nodal conduction time (negative dromotropic effect) was measured. Atrial and ventricular surface electrograms in rats and H is bundle electrogram in guinea pigs, were recorded during constant atrial pacing. The effects of Compound 18 on atrioventricular conduction time and stimulus-to-His-bundle (S-H interval) were determined as described previously by Jenkins and Belardinelli (1988).
The effects of Compound 18 on coronary conductance (A2A effect) and atrioventricular conduction time or stimulus-to-His-bundle (S-H) interval (A1 effect) was then determined. […] In each experiment, concentration-response relationship of Compound 18 (n=5 rats, 5 guinea pigs) to increase coronary conductance and to prolong A-V conduction time or S-H interval was determined. […]

[7] = biological target: A2A AdoR (Cavia porcellus, UniProt P46616); assay: Increase of coronary conductance in guinea pig isolated perfused hearts
A2A AdoR (Cavia porcellus, UniProt P46616), sequence (P46616 whole entry, the tested form may be a part): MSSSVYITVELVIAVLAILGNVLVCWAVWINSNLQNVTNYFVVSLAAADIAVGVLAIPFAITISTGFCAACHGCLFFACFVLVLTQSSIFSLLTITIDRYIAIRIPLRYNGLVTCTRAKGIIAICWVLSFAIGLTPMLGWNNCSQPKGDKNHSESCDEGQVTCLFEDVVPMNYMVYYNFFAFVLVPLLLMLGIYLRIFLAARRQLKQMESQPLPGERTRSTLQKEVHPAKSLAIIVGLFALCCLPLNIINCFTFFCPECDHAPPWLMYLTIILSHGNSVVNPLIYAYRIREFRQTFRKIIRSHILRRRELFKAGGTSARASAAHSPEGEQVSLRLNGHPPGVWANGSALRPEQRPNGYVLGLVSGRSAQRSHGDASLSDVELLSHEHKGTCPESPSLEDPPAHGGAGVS
Protocol: as §3
Coronary perfusion pressure (CPP) was measured using a pressure transducer, connected to the aortic cannula via a T-connector positioned approximately 3 cm above the heart. Coronary perfusion pressure was monitored throughout the experiment and recorded either on a chart recorder (Gould Recorder 2200S) or a computerized recording system (PowerLab/4S, ADinstruments Pty Ltd, Australia). Only hearts with CPP ranging from 60 to 85 mmHg (in the absence of drugs) were used in the study. […]

[8] = biological target: T2, human A1 AdoR (Homo sapiens, UniProt P30542); assay: Competition binding, [3H]DPCPX binding sites on CHO-hA1AdoR cell membranes; conditions: Gpp(NH)p 100 μM
T2 construct: expressed in transfected cells
T2 sequence (P30542 1-326): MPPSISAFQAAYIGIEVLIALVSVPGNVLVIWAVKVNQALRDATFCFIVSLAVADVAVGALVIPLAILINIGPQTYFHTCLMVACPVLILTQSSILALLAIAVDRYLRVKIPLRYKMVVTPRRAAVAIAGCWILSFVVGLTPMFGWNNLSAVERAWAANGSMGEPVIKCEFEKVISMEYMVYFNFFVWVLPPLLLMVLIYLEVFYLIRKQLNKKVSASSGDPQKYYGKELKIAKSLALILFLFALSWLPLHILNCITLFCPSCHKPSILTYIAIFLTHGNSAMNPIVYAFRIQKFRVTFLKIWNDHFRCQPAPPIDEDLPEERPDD

[9] = biological target: T3, A1 AdoR (Rattus norvegicus, UniProt P25099); assay: A-V nodal conduction time (negative dromotropic effect) in rat isolated perfused hearts; conditions: Compound 18 0.1-30 μM, CVT510 100-400 nM
T3 construct: from tissue; host or cells: Sprague Dawley rat isolated perfused heart
T3 sequence (P25099 1-326): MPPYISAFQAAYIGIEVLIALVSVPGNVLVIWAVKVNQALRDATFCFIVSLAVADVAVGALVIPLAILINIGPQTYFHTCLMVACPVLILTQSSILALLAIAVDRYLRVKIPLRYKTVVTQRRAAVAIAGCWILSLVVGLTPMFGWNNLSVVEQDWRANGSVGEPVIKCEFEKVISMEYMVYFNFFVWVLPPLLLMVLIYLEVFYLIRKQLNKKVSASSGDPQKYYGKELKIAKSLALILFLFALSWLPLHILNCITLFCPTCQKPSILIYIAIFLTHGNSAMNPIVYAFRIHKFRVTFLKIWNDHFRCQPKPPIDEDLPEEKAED
Protocol: In experiments in which A1 adenosine receptor-mediated negative dromotropic effect was measured, atrial and ventricular surface electrograms were recorded during constant atrial pacing. The effect of various adenosine receptor agonists on atrioventricular conduction time was determined as described previously by Jenkins and Belardinelli Circ. Res. 63: 97-116 (1988).
as §1, §2
The effects of Compound 18 on coronary conductance (A2A effect) and atrioventricular conduction time or stimulus-to-His-bundle (S-H) interval (A1 effect) was then determined. […]

[10] = tested on: A2A AdoR; assay: Coronary blood flow and reversal time of coronary vasodilation in open-chest anesthetized pigs; conditions: pig, intracoronary infusion 50 μg/kg/min
Protocol: Farm pigs weighing 22-27 kg were used in this study. […] In addition, animals were used in accordance with the guidelines of the University of Kentucky Institutional Animal Care and Use Protocol.
Anesthesia was anesthetized with ketamine (20 mg/kg, i.m.) and sodium pentobarbital (15-18 mg/kg i.v.). Anesthesia was maintained with additional sodium pentobarbital (1.5-2 mg/kg, i.v.) every 15-20 minutes. Ventilation was maintained via a tracheotomy using a mixture of room air and 100% O2. Tidal volume, respiratory rate and fraction of O2 in inspired air were adjusted to maintain normal arterial blood gas (ABG) and pH values. […] Lactate Ringers solution was administered via an ear or femoral vein, at 5-7 ml/kg/min after a initial bolus of 300-400 ml. A catheter was inserted into the femoral artery to monitor arterial blood pressure and to obtain ABG samples.
The heart was exposed through a median sternotomy, and suspended in a pericardial cradle. Left ventricular pressure (LVP) was measured with a 5F high fidelity pressure sensitive tip transducer (Millar Instruments, Houston, Tex.) placed in the left ventricular cavity via the apex and secured with a purse string suture. A segment of the left anterior descending coronary artery (LAD), proximal to the origin of the first diagonal branch, was dissected free of, surrounding tissue. A transmit time perivascular flow probe (Transonic Systems Inc., Ithaca, N.Y.) was placed around this segment to measure coronary blood flow (CBF). Proximal to the flow probe a 24 g modified angiocatheter was inserted for intracoronary infusions. […] A2A AdoR agonists were dissolved in DMSO to produce stock concentrations of 1-5 mM, which were diluted in 0.9% saline and infused at rates of 1-1.5 ml/min. The A2A AdoR agonists were administered intracoronary. To maintain blood pressure constant, phenylephrine was administered intravenously. The phenylephrine stock solution (30 mM) was prepared in distilled water.
Prior to initiating the experiment, a 30-minute stabilization period followed the completion of all instrumentation. After obtaining the baseline hemodynamic data the first intracoronary infusion of an A2A ADOR agonist was initiated. Infusions were maintained for 4-5 minutes to allow LAD CBF to reach a steadystate, after which the infusion was terminated. The time to recovery of 50% (t 0.5) and 90% (t 0.9) of baseline CBF were recorded. Ten to 15 minutes after CBF returned to pre-drug values a second infusion with a different agonist was started. […] The effect of a maximum of three different agonists was determined in each experiment.

A2A AdoR (Rattus norvegicus, UniProt P30543), sequence (P30543 whole entry, the tested form may be a part): as the sequence (P30543 whole entry, the tested form may be a part) above

With `CCCCCn1cc(-c2nc(N)c3ncn([C@@H]4O[C@H](CO)[C@@H](O)[C@H]4O)c3n2)cn1` [Compound 18, (4S,2R,3R,5R)-2-[6-amino-2-(1-pentylpyrazol-4-yl)purin-9 yl]-5-(hydroxymethyl)oxolane-3,4-diol] the EC50 ([1]; EC50 to increase coronary conductance in rat hearts, Example 7, n=5 rats) was 68.9 ± 9.6 nM, the EC50 ([1]; Potency (EC50) to increase coronary conductance, Rat, rat isolated perfused hearts, Table 3) was 67.9 ± 16.7 nM and the “effect on coronary conductance” value ([1]; isolated perfused hearts (36 rats and 18 guinea pigs), atrial cycle length 340 msec) was “concentration-dependent increase”. For the same molecule, the “relative potency in increasing coronary conductance” value ([1]; isolated perfused hearts, rat and guinea pig) was “about as potent as adenosine”, the “greater affinity for A2A than A1 AdoR” value ([2]; A2A vs A1 AdoR) was > 2 fold and the Ki ([2]; Binding Affinity Ki) was 2900 nM. The Ki ([2]; Binding Affinity pKi ± SEM) was 2880 nM, the Ki [3] was 7090 ± 780 nM and the “t 0.5, time to 50% reversal of the increase in coronary conductance” value [4] was 3.4 ± 0.5 min. The “t 0.9, time to 90% reversal of the increase in coronary conductance” value [4] was 8.4 ± 2.2 min, the “agonist efficacy to cause coronary vasodilation” value [5] was “full agonists” and the less potent than the prototypical agonist CGS21680 ([5]; relative to CGS21680) was 10 fold. For the same molecule, the “effect on S-H interval” value [6] was “no prolongation”, the EC50 [7] was 203 ± 22 nM and the Ki ([8]; read-out: Binding Affinity Ki, CHO-hA1AR) was 5840 nM. The Ki ([8]; read-out: Binding Affinity pKi ± SEM, CHO-hA1AR (converted)) was 5750 nM, the “effect on A-V nodal conduction time” value [9] was “did not prolong” and the “CBF ("Fold Increase") above baseline, maximal” value [10] was 3.33 ± 0.58 fold. The “t0.5, time to 50% reversal of the increase in coronary blood flow” value [10] was 3.1 ± 0.9 min and the “t0.9, time to 90% reversal of the increase in coronary blood flow” value [10] was 12.0 ± 1.0 min.
